Source: patent US8318947B2, “Comestible compositions comprising high potency savory flavorants, and processes for producing them” (Senomyx, Inc., priority 2006, dated 2012)

Tests used:
[1] = system: human subjects, savory taste; assay: Human taste test of low sodium tomato juice; type: in vivo; settings: 3 μM cpd; 400 mg Na/8 oz tomato juice
Description: Human taste tests were conducted in order to evaluate the ability of the compounds of the invention to enhance the savory flavor of low sodium tomato juice (which naturally comprises some monosodium glutamate).
The final tomato juice samples for taste testing were prepared so as to comprise 90% (by volume) pre-made low sodium tomato juice stock (pH 4.2, 80˜100 mg Na/8 oz, 16 mM of naturally occurring MSG), 5% (by volume) of stock solutions formulated to produce selected final levels of sodium of final juice, and 5% (by volume) of a stock solution of the compound of the invention. Selected oxalamide compounds of the invention were dissolved in LSB (low sodium phosphate buffer), to provide a stock solution at 20 times the desired final concentration in the final tomato juice. The desired final sodium concentration of the final tomato juice was most experiments 73.6 mM (400 mg sodium in 8 oz. of juice), therefore a stock solution of NaCl was made at 1.48 M NaCl. The pH for the stock solutions was adjusted to 4.2 using a 1 M citric acid solution, and the stock solutions were sonicated to ensure the additive compounds were completely dissolved. […]
Scores were averaged across panelists and sessions, and evaluated using a 2-way ANOVA (factors: panelists and samples) and Duncan's multiple comparison test (alpha=0.05) to determine significant differences in intensity ratings.

[2] = system: trained tasters; assay: Pizza sauce triangle difference taste test; type: in vivo, human
Description: For effective formulation in pizza sauce, a water soluble savory flavor concentrate formulation comprising 0.1% of Compound 1 was developed by dissolution in propylene glycol.
18221.7600 g of propylene glycol (supplied by Gold Coast, Inc.) was weighed out into a 2000 ml stainless steel cylinder, 18.2400 grams of Compound 1 was slowly added to 700.00 g of the propylene glycol using a Silverson Mill (model: L4RT) having a square hole high shear screen and set at 2000 rpm, until all of the dry 5807 (Compound 1) was added to the propylene glycol, the mill rpms was increased to 5,000-6,000 rpm's for 8-10 minutes. The remaining 17,521.76 g of propylene glycol was placed into a 10-gallon steam jacketed kettle equipped with a Lightnin Mixer utilizing a three blade impeller and heated to 50° C. (120° F.), then the milled solution was slowly added to the heated and agitated propylene glycol in the kettle. It took over 30 minutes of heating and mixing to completely solubilize Compound 1, then, the solution was allowed to cool to 80° F., then a Unispense Filler was used to fill sterilized 2 oz. glass containers with 62 grams of the liquid savory flavor, for storage. The water activity of the solution was 0.953@24.7° C., the refractive index was 1.4328, and the final concentration of this savory flavor was 0.10% of Compound 1.
Two pizza sauce samples, one comprising 0.4% of MSG and one containing no MSG, but comprising 1.1 ppm of Compound 1 were prepared using the ingredients listed in Tables 391 and 39-2 below, using the following procedure.
Salt, citric acid, sugar, the spices and herbs, including the MSG, were pre-blended as solids at 80-100 rpms in a 6 quart bowl and mixed using a KitchenAide blender for 5 minutes using a whip attachment. Water was placed in a clean kettle and stirred with a Lightnin mixer at 120-200 rpms to create a vortex. The savory flavor form of Compound 1, 0.10%, was slowly added to the water and mixed for five minutes. The vinegar and solid spice mixture was slowly added with the mixer still blending at 80-100 rpms until the dry seasonings were dissolved, approximately 5 minutes. The tomato paste was added and the slurry was mixed an additional 10. The resulting pizza sauce was transferred to a stainless steel six quart pot on a gas burner and was heated to pasteurizing temperature (175-190° F.) and held for a minimum of two minutes, cooled down to ambient (70+/−2° F.) temperature.
Ten trained tasters were trained to identify relative intensities of the following taste attributes: salty, savory/meaty, umami, brothiness, bitter, linger and off flavors. A triangle difference test determines if there is a sensory difference between two products. Three blinded, coded and randomized samples are presented to the panelist. Two samples are the same and one is different. To answer the test correctly, the panelist must taste all three samples and correctly pick out the sample they feel is different from the other two.
The samples were blind coded and presented in randomized order. The panelists each performed a total of two triangle tests, with 3 samples per test
a. Test 1: 2 samples with 1.1 ppm Compound 1; one sample with MSG.
b. Test 2: 2 samples with MSG; one sample with 1.1 ppm Compound 1.

[3] = Test 1: 2 samples with 1.1 ppm Compound 1, one sample with MSG, 10 panelists
[4] = Test 2: 2 samples with MSG, one sample with 1.1 ppm Compound 1, 10 panelists

COc1ccc(CNC(=O)C(=O)NCCc2ccccn2)c(OC)c1 [Example 24, N-(2,4-Dimethoxy-benzyl)-N′-(2-pyridin-2-yl-ethyl)-oxalamide]
Enhancement of the savory taste of 16 mM glutamate (naturally existing) in low sodium tomato juice [1]: by 1.4 to 1.5-fold

CCCC(CCC)NC(=O)c1ccc2c(c1)OCO2 [Example 1, N-(heptan-4-yl)benzo[d][1,3]dioxole-5-carboxamide]
Distinguishing pizza sauce with compound (no MSG) from pizza sauce with full loading of MSG ([2]; 1.1 ppm Compound 1 vs 0.4% MSG): could not distinguish between the sauces | # Correct [2, 3]: 3 | # Incorrect [2, 3]: 7 | # Correct [2, 4]: 6 | # Incorrect [2, 4]: 4 | # Correct ([2]; Totals, n = 20): 9 | # Incorrect ([2]; Totals, n = 20): 11
